Test results: the NIST ThermoML archive (doi:10.1016/j.jct.2019.02.011)
± gives the expanded uncertainty stated by the source.

Assay: xn = mol fraction of the nth substance listed
Details: Liquid, Vibrating tube method

COC(=O)OC [dimethyl carbonate] + CCCO
mass density [kg/m3]
Details	100 kPa	5000 kPa	10000 kPa	15000 kPa	20000 kPa	25000 kPa	30000 kPa	35000 kPa	40000 kPa
303.15 K, x1 = 0.0273	–	–	–	–	–	–	–	827.45 ± 1.4	830.37 ± 1.4
303.15 K, x1 = 0.0506	–	–	–	–	–	–	–	834.14 ± 1.4	837.11 ± 1.4
303.15 K, x1 = 0.0755	–	–	–	–	–	–	–	841.27 ± 1.4	844.3 ± 1.4
303.15 K, x1 = 0.1007	–	–	–	–	–	–	–	848.4 ± 1.4	851.44 ± 1.4
303.15 K, x1 = 0.1495	–	–	–	–	–	–	–	862.14 ± 1.4	865.25 ± 1.4
303.15 K, x1 = 0.2003	–	–	–	–	–	–	–	876.43 ± 1.4	879.56 ± 1.4
303.15 K, x1 = 0.2529	–	–	–	–	–	–	–	891.09 ± 1.4	894.28 ± 1.4
303.15 K, x1 = 0.2993	–	–	–	–	–	–	–	903.84 ± 1.4	907.1 ± 1.4
303.15 K, x1 = 0.3497	–	–	–	–	–	–	–	917.64 ± 1.4	920.92 ± 1.4
303.15 K, x1 = 0.401	–	–	–	–	–	–	–	931.51 ± 1.5	934.85 ± 1.5
303.15 K, x1 = 0.4509	–	–	–	–	–	–	–	944.84 ± 1.5	948.26 ± 1.5
303.15 K, x1 = 0.5002	–	–	–	–	–	–	–	958 ± 1.5	961.43 ± 1.5
303.15 K, x1 = 0.5498	–	–	–	–	–	–	–	971.12 ± 1.5	974.61 ± 1.5
303.15 K, x1 = 0.5996	–	–	–	–	–	–	–	984.2 ± 1.5	987.76 ± 1.5
303.15 K, x1 = 0.6499	–	–	–	–	–	–	–	997.34 ± 1.5	1000.93 ± 1.5
303.15 K, x1 = 0.7006	–	–	–	–	–	–	–	1010.45 ± 1.5	1014.1 ± 1.5
303.15 K, x1 = 0.7471	–	–	–	–	–	–	–	1022.39 ± 1.5	1026.05 ± 1.5
303.15 K, x1 = 0.7989	–	–	–	–	–	–	–	1035.67 ± 1.5	1039.35 ± 1.5
303.15 K, x1 = 0.8491	–	–	–	–	–	–	1044.84 ± 1.5	1048.52 ± 1.5	1052.22 ± 1.6
303.15 K, x1 = 0.8993	–	–	–	–	–	–	1057.6 ± 1.6	1061.28 ± 1.6	1065.05 ± 1.6
303.15 K, x1 = 0.9249	–	–	–	–	–	–	1064.01 ± 1.6	1067.75 ± 1.6	1071.52 ± 1.6
303.15 K, x1 = 0.9489	–	–	–	–	–	–	1070.02 ± 1.6	1073.76 ± 1.6	1077.54 ± 1.6
303.15 K, x1 = 0.9743	–	–	–	–	–	–	1076.38 ± 1.6	1080.13 ± 1.6	1083.97 ± 1.6
303.15 K, x1 = 1	–	–	–	–	–	–	1082.9 ± 0.61	1086.6 ± 0.63	1090.4 ± 0.64
308.15 K, x1 = 0.0273	798.56 ± 1.4	802.69 ± 1.4	806.56 ± 1.4	810.18 ± 1.4	813.81 ± 1.4	817.21 ± 1.4	820.58 ± 1.4	823.72 ± 1.4	826.71 ± 1.4
308.15 K, x1 = 0.0506	804.88 ± 1.4	809.05 ± 1.4	812.98 ± 1.4	816.65 ± 1.4	820.28 ± 1.4	823.74 ± 1.4	827.15 ± 1.4	830.34 ± 1.4	833.34 ± 1.4
308.15 K, x1 = 0.0755	811.69 ± 1.4	815.86 ± 1.4	819.84 ± 1.4	823.57 ± 1.4	827.25 ± 1.4	830.71 ± 1.4	834.12 ± 1.4	837.36 ± 1.4	840.41 ± 1.4
308.15 K, x1 = 0.1007	818.55 ± 1.4	822.77 ± 1.4	826.76 ± 1.4	830.48 ± 1.4	834.21 ± 1.4	837.72 ± 1.4	841.19 ± 1.4	844.43 ± 1.4	847.53 ± 1.4
308.15 K, x1 = 0.1495	831.9 ± 1.4	836.17 ± 1.4	840.21 ± 1.4	844.04 ± 1.4	847.82 ± 1.4	851.38 ± 1.4	854.86 ± 1.4	858.14 ± 1.4	861.25 ± 1.4
308.15 K, x1 = 0.2003	845.6 ± 1.4	849.97 ± 1.4	854.07 ± 1.4	857.95 ± 1.4	861.78 ± 1.4	865.4 ± 1.4	868.98 ± 1.4	872.31 ± 1.4	875.47 ± 1.4
308.15 K, x1 = 0.2529	859.71 ± 1.4	864.12 ± 1.4	868.28 ± 1.4	872.21 ± 1.4	876.1 ± 1.4	879.78 ± 1.4	883.42 ± 1.4	886.79 ± 1.4	890 ± 1.4
308.15 K, x1 = 0.2993	872.12 ± 1.4	876.53 ± 1.4	880.75 ± 1.4	884.73 ± 1.4	888.67 ± 1.4	892.4 ± 1.4	896.05 ± 1.4	899.42 ± 1.4	902.69 ± 1.4
308.15 K, x1 = 0.3497	885.38 ± 1.4	889.84 ± 1.4	894.11 ± 1.4	898.2 ± 1.4	902.19 ± 1.4	905.97 ± 1.4	909.68 ± 1.4	913.1 ± 1.4	916.37 ± 1.4
308.15 K, x1 = 0.401	898.75 ± 1.4	903.3 ± 1.4	907.64 ± 1.4	911.77 ± 1.4	915.81 ± 1.4	919.66 ± 1.4	923.42 ± 1.4	926.84 ± 1.5	930.17 ± 1.5
308.15 K, x1 = 0.4509	911.74 ± 1.4	916.34 ± 1.4	920.73 ± 1.4	924.87 ± 1.4	928.97 ± 1.4	932.87 ± 1.5	936.64 ± 1.5	940.1 ± 1.5	943.48 ± 1.5
308.15 K, x1 = 0.5002	924.45 ± 1.4	929.1 ± 1.4	933.55 ± 1.4	937.74 ± 1.5	941.84 ± 1.5	945.79 ± 1.5	949.62 ± 1.5	953.13 ± 1.5	956.52 ± 1.5
308.15 K, x1 = 0.5498	937.17 ± 1.4	941.82 ± 1.5	946.33 ± 1.5	950.57 ± 1.5	954.72 ± 1.5	958.68 ± 1.5	962.57 ± 1.5	966.12 ± 1.5	969.52 ± 1.5
308.15 K, x1 = 0.5996	949.8 ± 1.5	954.5 ± 1.5	959.02 ± 1.5	963.36 ± 1.5	967.52 ± 1.5	971.54 ± 1.5	975.48 ± 1.5	979.03 ± 1.5	982.49 ± 1.5
308.15 K, x1 = 0.6499	962.55 ± 1.5	967.29 ± 1.5	971.88 ± 1.5	976.22 ± 1.5	980.43 ± 1.5	984.5 ± 1.5	988.45 ± 1.5	992.05 ± 1.5	995.51 ± 1.5
308.15 K, x1 = 0.7006	975.36 ± 1.5	980.15 ± 1.5	984.79 ± 1.5	989.19 ± 1.5	993.45 ± 1.5	997.53 ± 1.5	1001.49 ± 1.5	1005.08 ± 1.5	1008.6 ± 1.5
308.15 K, x1 = 0.7471	986.95 ± 1.5	991.79 ± 1.5	996.49 ± 1.5	1000.94 ± 1.5	1005.2 ± 1.5	1009.34 ± 1.5	1013.35 ± 1.5	1016.99 ± 1.5	1020.52 ± 1.5
308.15 K, x1 = 0.7989	999.88 ± 1.5	1004.72 ± 1.5	1009.48 ± 1.5	1013.98 ± 1.5	1018.3 ± 1.5	1022.49 ± 1.5	1026.51 ± 1.5	1030.15 ± 1.5	1033.73 ± 1.5
308.15 K, x1 = 0.8491	1012.38 ± 1.5	1017.27 ± 1.5	1022.04 ± 1.5	1026.54 ± 1.5	1030.91 ± 1.5	1035.16 ± 1.5	1039.19 ± 1.5	1042.88 ± 1.5	1046.46 ± 1.5
308.15 K, x1 = 0.8993	1024.9 ± 1.5	1029.78 ± 1.5	1034.61 ± 1.5	1039.16 ± 1.5	1043.54 ± 1.5	1047.79 ± 1.5	1051.88 ± 1.6	1055.57 ± 1.6	1059.15 ± 1.6
308.15 K, x1 = 0.9249	1031.23 ± 1.5	1036.11 ± 1.5	1040.95 ± 1.5	1045.55 ± 1.5	1049.98 ± 1.5	1054.24 ± 1.6	1058.33 ± 1.6	1062.01 ± 1.6	1065.61 ± 1.6
308.15 K, x1 = 0.9489	1037.12 ± 1.5	1042.05 ± 1.5	1046.89 ± 1.5	1051.5 ± 1.5	1055.93 ± 1.6	1060.19 ± 1.6	1064.28 ± 1.6	1068.02 ± 1.6	1071.61 ± 1.6
308.15 K, x1 = 0.9743	1043.46 ± 1.5	1048.4 ± 1.5	1053.24 ± 1.6	1057.85 ± 1.6	1062.28 ± 1.6	1066.54 ± 1.6	1070.69 ± 1.6	1074.37 ± 1.6	1078.02 ± 1.6
308.15 K, x1 = 1	1049.91 ± 0.56	1054.84 ± 0.56	1059.69 ± 0.57	1064.3 ± 0.58	1068.73 ± 0.59	1073 ± 0.6	1077.1 ± 0.61	1080.78 ± 0.62	1084.38 ± 0.63
